From PubChem BioAssay (NCI)
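Growth conditions: 96-well plates. Treatment: test compound, 48 hours, 5 concentrations. Analysis: linear interpolation between bracketing concentrations; unreached endpoints set to highest concentration. TGI: concentration producing complete growth inhibition.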

Assays:
Assay in all cases: DTP human tumour cell line panel, 48 h
[1] = tested on: SK-OV-3 ovarian
[2] = tested on: HCT-116 colon
[3] = tested on: IGROV1 ovarian
[4] = tested on: HCT-15 colon
[5] = tested on: LOX IMVI melanoma
[6] = tested on: KM12 colon
[7] = tested on: MOLT-4 leukemia
[8] = tested on: HOP-92 NSCLC
[9] = tested on: A498 renal
[10] = tested on: RXF 393 renal
[11] = tested on: SK-MEL-28 melanoma
[12] = tested on: HCC-2998 colon
[13] = tested on: OVCAR-5 ovarian
[14] = tested on: DLD-1 colon
[15] = tested on: SK-MEL-2 melanoma

| Structure (SMILES) | TGI [1] [µM] | TGI [2] [µM] | TGI [3] [µM] | TGI [4] [µM] | TGI [5] [µM] | TGI [6] [µM] | TGI [7] [µM] | TGI [8] [µM] | TGI [9] [µM] | TGI [10] [µM] | TGI [11] [µM] | TGI [12] [µM] | TGI [13] [µM] | TGI [14] [µM] | TGI [15] [µM] |
| --- | --- | --- | --- | --- | --- | --- | --- | --- | --- | --- | --- | --- | --- | --- | --- |
| CC(=O)c1cccc(NC(=O)C(=O)C(C(=O)c2ccccc2F)C2OC(=O)c3ccccc32)c1 (configuration not stated) | > 100 | 88.6 | > 100 | > 100 | 62.9 | > 100 | > 100 | > 100 | > 100 | 70 | > 100 | 53.9 | > 100 | > 100 | 96.1 |
| CCOC(=O)C1=NN(c2ccccc2)C2=CC(C)=NN(C)C(=S)N21 | > 100 | > 100 | > 100 | > 100 | > 100 | > 100 | > 100 | > 100 |  | > 100 | > 100 | > 100 | > 100 |  | > 100 |
| O=C1CCc2cc3c(cc21)CC1(Cc2cc4c(cc2C1)CCCC4)C3 | > 100 | > 100 | > 100 | > 100 | > 100 | > 100 | > 100 | 11.4 | > 100 | > 100 | > 100 | > 100 | > 100 |  | > 100 |
| CC[C@](C)(O)C(=O)O[C@H]1C(=O)O[C@@H]2C[C@H]3C(C)=C[C@H](O)[C@@H](O)[C@]3(C)[C@H]3[C@@]4(O)OC[C@]32[C@@H]1[C@@H](C)[C@H]4O | 263 | 89.2 | 52.5 | 221 | 68.4 | 109 | 27.5 | 83.1 | 71.5 | 2.43 | 123 | 71.4 | 291 | 63.6 | 118 |
